Data on twelve compounds can be found in US9732063B2, “Kinase inhibitors” (RESPIVERT LIMITED, priority 2012, dated 2017).

Experiment [1] relates to PBMCs. The experiment is described as follows: IL-2 and IFN gamma release in CD3/CD28 stimulated PBMC cells. To be noted: Homo sapiens. The class given is cell-based. As for the experimental part: PBMCs from healthy subjects are separated from whole blood using a density gradient (Lymphoprep, Axis-Shield Healthcare). Cells are added to a 96 well plate pre-coated with a mixture of CD3/CD38 monoclonal antibodies (0.3 μg/mL eBioscience and 3 μg/mL BD Pharmingen respectively). Compound at the desired concentration is then added to the wells and the plate left for 3 days under normal tissue culture conditions. Supernatants are harvested and IL-2 and IFN gamma release determined by Sandwich ELISA (Duo-set, R&D System). The IC50 is determined from the dose response curve.

The next experiment concerns the target GSK3α (Homo sapiens (Human), UniProt P49840). The experiment is described as follows: GSK 3α enzyme inhibition (Z-LYTE FRET, Method 2). The class given is biochemical. As for the experimental part:
(§1) The enzyme inhibitory activities of compounds disclosed herein are determined by FRET using synthetic peptides labelled with both donor and acceptor fluorophores (Z-LYTE, Invitrogen Ltd., Paisley, UK).
The inhibitory activities of compounds of the invention against the GSK 3α enzyme isoform (Invitrogen), are evaluated by determining the level of activation/phosphorylation of the target peptide. The GSK3-α protein (500 ng/mL, 2.5 μL) is mixed with the test compound (2.5 μL at either 4 μg/mL, 0.4 μg/mL, 0.04 μg/mL, or 0.004 μg/mL) for 2 hr at RT. The FRET peptide (8 μM, 2.5 μL), which is a phosphorylation target for GSK3α, and ATP (40 μM, 2.5 μL) are then added to the enzyme/compound mixture and the resulting mixture incubated for 1 hr. Development reagent (protease, 5 μL) is added for 1 hr prior to detection in a fluorescence microplate reader (Varioskan® Flash, ThermoFisher Scientific).
(§2) In all cases, the site-specific protease cleaves non-phosphorylated peptide only and eliminates the FRET signal. Phosphorylation levels of each reaction are calculated using the ratio of coumarin emission (donor) over fluorescein emission (acceptor), for which high ratios indicate high phosphorylation and low ratios indicate low phosphorylation levels.

For the next experiment, the target named is c-Src (Homo sapiens (Human), UniProt P12931). The experiment is described as follows: c-Src enzyme inhibition (Z-LYTE FRET). The class given is biochemical. As for the experimental part:
as §1
(§3) The relevant enzyme (3000 ng/mL or 2000 ng/mL respectively, 2.5 μL) is incubated with the test compound (either 4 μg/mL, 0.4 μg/mL, 0.04 μg/mL, or 0.004 μg/mL, 2.5 μL each) for 2 hr at RT. The FRET peptides (8 μM, 2.5 μL), and appropriate ATP solutions (2.5 μL, 800 μM for c-Src, and 60 μM ATP for Syk) are then added to the enzymes/compound mixtures and incubated for 1 hr. Development reagent (protease, 5 μL) is added for 1 hr prior to detection in a fluorescence microplate reader (Varioskan® Flash, ThermoFisher Scientific).
as §2

Experiment [2] concerns PBMCs. The experiment is described as follows: LPS-induced TNFα/IL-8 release in PBMC cells. The experiment is classed as cell-based. To be noted: Homo sapiens, read-out: IC50 Values for Inhibition of Cytokine Release PBMCs IL-8. As for the experimental part: Peripheral blood mononuclear cells (PBMCs) from healthy subjects are separated from whole blood using a density gradient (Lymphoprep, Axis-Shield Healthcare). The PBMCs are seeded in 96 well plates and treated with compounds at the desired concentration for 2 hours before addition of 1 ng/mL LPS (Escherichia Coli O111:B4 from Sigma Aldrich) for 24 hours under normal tissue culture conditions (37° C., 5% CO2). The supernatant is harvested for determination of IL-8 and TN Fa concentrations by sandwich ELISA (Duo-set, R&D systems) and read on the fluorescence microplate reader (Varioskan® Flash, ThermoFisher Scientific).

A further experiment has as its target p38 MAPKα (Homo sapiens (Human), UniProt Q16539). In words: p38 MAPKα enzyme inhibition (Z-LYTE FRET, Method 2). The experiment is classed as biochemical. Here is the method: as §1
The inhibitory activities of test compounds against the p38 MAPKα isoform (MAPK14: Invitrogen), are evaluated indirectly by determining the level of activation/phosphorylation of the down-stream molecule, MAPKAP-K2. The p38 MAPKα protein (80 ng/mL, 2.5 μL) is mixed with the test compound (2.5 μL of either 4 μg/mL, 0.4 μg/mL, 0.04 μg/mL or 0.004 μg/mL) for 2 hr at RT. […] The mixture is incubated for 1 hr at RT. Development reagent (protease, 5 μL) is added for 1 hr prior to detection in a fluorescence microplate reader (Varioskan® Flash, ThermoFisher Scientific).
as §2

In a further experiment the target is Syk (Homo sapiens (Human), UniProt P43405). The experiment is described as follows: Syk enzyme inhibition (Z-LYTE FRET). The class given is biochemical. Here is the method:
as §1, §3, §2

Setting [3] is: read-out: IC50 Values for Inhibition of Cytokine Release PBMCs IL-2.
The mark [4] stands for this setting: read-out: IC50 Values for Inhibition of Cytokine Release PBMCs IFNγ.

Each structure is given as a SMILES string.

Chain of c-Src (P12931 whole entry, looked up): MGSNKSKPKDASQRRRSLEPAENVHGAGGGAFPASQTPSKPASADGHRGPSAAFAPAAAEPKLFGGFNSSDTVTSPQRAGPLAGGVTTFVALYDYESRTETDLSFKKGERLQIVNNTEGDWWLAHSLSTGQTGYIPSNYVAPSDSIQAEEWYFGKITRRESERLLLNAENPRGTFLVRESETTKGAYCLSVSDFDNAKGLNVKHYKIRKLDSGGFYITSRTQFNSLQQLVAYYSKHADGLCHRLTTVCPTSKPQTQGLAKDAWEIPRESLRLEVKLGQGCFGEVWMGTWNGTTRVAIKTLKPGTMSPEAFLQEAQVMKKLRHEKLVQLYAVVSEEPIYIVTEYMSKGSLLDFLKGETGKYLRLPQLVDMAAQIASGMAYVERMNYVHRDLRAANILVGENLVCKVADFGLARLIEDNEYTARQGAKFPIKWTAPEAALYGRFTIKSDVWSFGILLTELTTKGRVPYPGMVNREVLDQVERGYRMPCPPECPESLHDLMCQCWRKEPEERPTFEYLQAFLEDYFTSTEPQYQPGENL
Chain of GSK3α (P49840 whole entry): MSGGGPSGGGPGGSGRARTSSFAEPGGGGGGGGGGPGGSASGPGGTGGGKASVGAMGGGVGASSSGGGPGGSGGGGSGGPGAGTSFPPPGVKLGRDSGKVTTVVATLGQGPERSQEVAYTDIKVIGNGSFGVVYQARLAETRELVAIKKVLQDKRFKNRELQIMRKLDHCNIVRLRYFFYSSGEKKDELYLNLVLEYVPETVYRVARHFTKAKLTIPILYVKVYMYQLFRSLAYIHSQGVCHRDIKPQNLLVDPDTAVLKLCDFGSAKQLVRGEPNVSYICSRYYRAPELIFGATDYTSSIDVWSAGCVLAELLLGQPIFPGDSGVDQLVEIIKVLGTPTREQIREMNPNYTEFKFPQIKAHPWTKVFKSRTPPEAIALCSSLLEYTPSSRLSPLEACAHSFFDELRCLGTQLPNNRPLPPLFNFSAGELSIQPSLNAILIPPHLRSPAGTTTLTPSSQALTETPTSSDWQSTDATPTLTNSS
Chain of p38 MAPKα (Q16539 whole entry, canonical isoform): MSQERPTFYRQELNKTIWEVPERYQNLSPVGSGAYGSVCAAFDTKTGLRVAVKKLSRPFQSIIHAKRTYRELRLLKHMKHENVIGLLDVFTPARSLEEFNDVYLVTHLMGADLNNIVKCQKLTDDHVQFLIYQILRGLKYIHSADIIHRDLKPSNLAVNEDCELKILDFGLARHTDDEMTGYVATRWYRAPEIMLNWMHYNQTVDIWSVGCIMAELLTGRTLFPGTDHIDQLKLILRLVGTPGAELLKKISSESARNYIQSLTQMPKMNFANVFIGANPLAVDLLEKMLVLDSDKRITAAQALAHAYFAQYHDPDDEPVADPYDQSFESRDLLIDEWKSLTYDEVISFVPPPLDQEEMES

On to `COc1cc(Nc2nccc(Oc3ccc(NC(=O)Nc4cc(C(C)C)nn4-c4ccc(C)cc4)c4ccccc34)n2)cc(OCCN2CCOCC2)c1` [Example 17, 1-(3-Isopropyl-1-(P-tolyl)-1H-pyrazol-5-yl)-3-(4-((2-((3-methoxy-5-(2-morpholinoethoxy)-phenyl)amino)pyrimidin-4-yl)oxy)naphthalen-1-yl)urea], for which the IC50 (as a rule, the point on the concentration scale where inhibition reaches its midpoint) with PBMCs [1] (setting [3]) was 20.3 nM; on GSK3α it was 2670 nM; against c-Src, more than 383 nM; with PBMCs [2], 1.1 nM; on p38 MAPKα, more than 280 nM; at Syk it was more than 537 nM.

Consider `C#Cc1cccc(Nc2nccc(Oc3ccc(NC(=O)Nc4cc(C(C)C)nn4-c4ccc(C)cc4)c4ccccc34)n2)c1` [Example 10, 1-(4-((2-((3-Ethynylphenyl)amino)pyrimidin-4-yl)oxy)naphthalen-1-yl)-3-(3-isopropyl-1-(p-tolyl)-1H-pyrazol-5-yl)urea], for which the values for the concentration for half-maximal inhibition (IC50) at c-Src, in the experiment on PBMCs [2] and against Syk were 137 nM, 7.9 nM and 807 nM, respectively.

Turning to `C#Cc1cc(Nc2nccc(Oc3ccc(NC(=O)Nc4cc(C(C)C)nn4-c4ccc(C)cc4)c4ccccc34)n2)cc(OC)c1` [Example 15, 1-(4-((2-((3-Ethynyl-5-methoxyphenyl)amino)pyrimidin-4-yl)oxy)naphthalen-1-yl)-3-(3-isopropyl-1-(p-tolyl)-1H-pyrazol-5-yl)urea], the half-inhibitory concentration (IC50) against c-Src is more than 1600 nM; in the experiment with PBMCs [2], 6.1 nM; against Syk, more than 1600 nM.

For `COCCOCCOCCOc1cc(Nc2nccc(Oc3ccc(NC(=O)Nc4cc(C(C)(C)C)nn4-c4ccc(C)cc4)c4ccccc34)n2)cc(OC)c1Cl` [Example 72, 1-(3-(tert-Butyl)-1-(p-tolyl)-1H-pyrazol-5-yl)-3-(4-((2-((4-chloro-3-methoxy-5-(2-(2-(2-methoxyethoxyl)ethoxy)ethoxy)phenyl)amino)pyrimidin-4-yl)oxy)naphthalen-1-yl)urea], the IC50 in the experiment on PBMCs [1] (setting [4]) is 3.3 nM; with PBMCs [1] (setting [3]) it was 35.1 nM; on GSK3α it was more than 10000 nM; at p38 MAPKα, 377 nM; at Syk, 75 nM.

For the compound `COCCOCCOCCOCCOc1cc(Nc2nccc(Oc3ccc(NC(=O)Nc4cc(C(C)C)nn4-c4ccc(C)cc4)c4ccccc34)n2)cc(OC)c1` [Example 29, 1-(4-((2-((3-(2,5,8,11-Tetraoxatridecan-13-yloxy)-5-methoxyphenyl)amino)pyrimidin-4-yl)oxy)naphthalen-1-yl)-3-(3-isopropyl-1-(p-tolyl)-1H-pyrazol-5-yl)urea], the IC50 is 6.6 nM with PBMCs [1] (setting [4]); 74.1 nM in the experiment on PBMCs [1] (setting [3]); more than 10000 nM against GSK3α; 6 nM against c-Src; 2.5 nM in the experiment with PBMCs [2]; 30 nM against p38 MAPKα. The 50% inhibitory concentration (IC50) on Syk is 16 nM.

Regarding `Cc1ccc(-n2nc(C(C)C)cc2NC(=O)Nc2ccc(Oc3ccnc(Nc4cccc(OCCOCCOCCO)c4)n3)c3ccccc23)cc1` [Example 19, 1-(4-((2-((3-(2-(2-(2-Hydroxyethoxy)ethoxy)ethoxy)phenyl)amino)pyrimidin-4-yl)oxy)-naphthalen-1-yl)-3-(3-isopropyl-1-(p-tolyl)-1H-pyrazol-5-yl)urea], the IC50 at GSK3α was found to be 1070 nM; against c-Src, 5 nM; in the experiment on PBMCs [2], 1.2 nM; against Syk, 20 nM.

Take `COc1cc(Nc2nccc(Oc3ccc(NC(=O)Nc4cc(C(C)C)nn4-c4ccc(C)cc4)c(Cl)c3Cl)n2)cc(S(=O)(=O)C2CC2)c1` [Example 23, 1-(2,3-Dichloro-4-((2-((3-(cyclopropylsulfonyl)-5-methoxyphenyl)amino)pyrimidin-4-yl)-oxy)phenyl)-3-(3-isopropyl-1-(p-tolyl)-1H-pyrazol-5-yl)urea]: the half-maximal inhibitory concentration (IC50) on GSK3α was found to be 1400 nM; at c-Src, 53 nM; with PBMCs [2], 2.6 nM; against Syk, 289 nM.

For the compound `COc1cc(Nc2nccc(Oc3ccc(NC(=O)Nc4cc(C(C)(C)C)nn4-c4ccc(C)cc4)c4ccccc34)n2)cc(SCCCO)c1` [Example 48, 1-(3-(tert-Butyl)-1-(p-tolyl)-1H-pyrazol-5-yl)-3-(4-((2-((3-((3-Hydroxypropyl)thio)-5-methoxyphenyl)amino)pyrimidin-4-yl)oxy)naphthalen-1-yl)urea], the IC50 amounted to 49.2 nM in the experiment with PBMCs [1] (setting [3]); 2050 nM against GSK3α; 3 nM in the experiment on PBMCs [2]; 195 nM against p38 MAPKα; 37 nM at Syk.

In the case of `COCCOCCOCCOCCOCCOCCOCCOc1cc(Nc2nccc(Oc3ccc(NC(=O)Nc4cc(C(C)C)nn4-c4ccc(C)cc4)c4ccccc34)n2)cc(OC)c1` [Example 32, 1-(4-((2-((3-(2,5,8,11,14,17,20-Heptaoxadocosan-22-yloxy)-5-methoxyphenyl)amino)-pyrimidin-4-yl)oxy)naphthalen-1-yl)-3-(3-isopropyl-1-(p-tolyl)-1H-pyrazol-5-yl)urea], the concentration for half-maximal inhibition (IC50) at GSK3α was 4690 nM; at c-Src, 3 nM; in the experiment on PBMCs [2], 1.4 nM; against p38 MAPKα it was 11 nM; against Syk, 7 nM.

Turning to `COc1cc(Nc2nccc(Oc3ccc(NC(=O)Nc4cc(C(C)(C)C)nn4-c4ccc(C)cc4)c4ccccc34)n2)cc(OCCOCCOCCN(C)C)c1` [Example 57, 1-(3-(tert-Butyl)-1-(p-tolyl)-1H-pyrazol-5-yl)-3-(4-((2-((3-(2-(2-(2-(dimethylamino)ethoxy)ethoxy)ethoxy)-5-methoxyphenyl)amino)pyrimidin-4-yl)oxy)naphthalen-1-yl)urea], the IC50 with PBMCs [1] (setting [4]) was 1.4 nM; with PBMCs [1] (setting [3]), 14.6 nM; against GSK3α, 1940 nM; against c-Src it was 7 nM; with PBMCs [2], 0.9 nM; against Syk, 8 nM.

Take `COCCOCCOCCOc1cc(Nc2nccc(Oc3ccc(NC(=O)Nc4cc(C(C)C)nn4-c4ccc(C)cc4)c(Cl)c3Cl)n2)cc(OC)c1` [Example 35, 1-(2,3-Dichloro-4-((2-((3-methoxy-5-(2-(2-(2-methoxyethoxy)ethoxy)ethoxy)phenyl)-amino)pyrimidin-4-yl)oxy)phenyl)-3-(3-isopropyl-1-(p-tolyl)-1H-pyrazol-5-yl)urea]: the IC50 with PBMCs [1] (setting [3]) is 9.8 nM; against GSK3α, more than 10000 nM; at c-Src, 15 nM; with PBMCs [2], 2.1 nM; on p38 MAPKα, 487 nM.

Turning to `COCCOCCOc1cc(Nc2nccc(Oc3ccc(NC(=O)Nc4cc(C(C)(C)C)nn4-c4ccc(C)cc4)c4ccccc34)n2)cc(OC)c1` [Example 60, 1-(3-(tert-Butyl)-1-(p-tolyl)-1H-pyrazol-5-yl)-3-(4-((2-((3-methoxy-5-(2-(2-methoxyethoxy)ethoxy)phenyl)amino)pyrimidin-4-yl)oxy)naphthalen-1-yl)urea], the IC50 in the experiment on PBMCs [1] (setting [4]) is 3 nM; with PBMCs [1] (setting [3]), 72.6 nM; against GSK3α, more than 10000 nM; at c-Src it was 17 nM; with PBMCs [2] it was 2.2 nM; on Syk, 30 nM.
